Data: ChEMBL document CHEMBL2311395, “One pot solvent free synthesis and in vitro antitubercular screening of 3-Aracylphthalides against Mycobacterium tuberculosis” (Bioorg Med Chem Lett, 2013)
≈ marks a conversion by molar mass, not a printed value.

Tested on: Mycobacterium tuberculosis
Assay: Antitubercular activity against Mycobacterium tuberculosis H37Ra ATCC 25177 assessed as growth inhibition after 8 days by XTT reduction menadione assay
Format: functional, organism-based
Conditions: H37Ra ATCC 25177, 192 h

SMILES | IC50 | IC90
O=C(CC1OC(=O)c2ccccc21)c1ccco1 (centres undefined) | 0.81 µg/mL (≈ 3.34 µM) | 
O=C(CC1OC(=O)c2ccccc21)c1ccc(Cl)cc1 (centres undefined) | 0.97 µg/mL (≈ 3.38 µM) | 
O=C(CC1OC(=O)c2ccccc21)c1cccs1 (centres undefined) | 1.24 µg/mL (≈ 4.8 µM) | 
NNC(=O)c1ccncc1 [ISONIAZID] |  | 0.125 µg/mL (≈ 0.911 µM)
